Two substances from patent publication US7070780B2, “Treatment of demyelinating autoimmune disease with ordered peptides” (Board of Trustees of the Leland Stanford Junior University, priority 1999, dated 2006) can be followed below.

Entries after “also recorded” stand apart in the source; their conditions may differ.

The test system of assay [1] is experimental autoimmune encephalomyelitis in Lewis rats. Put plainly: EAE treatment in Lewis rats immunized with MBPp85–99. The format is in vivo. Conditions: EAE induced with MBPp85–99, single intraperitoneal dose of 0.5 mg peptide in PBS at disease onset. On the procedure: FIG. 1 is a graph depicting the prevention of EAE in rats treated with ordered peptides. […] Animals were injected with an emulsion of 0.1 mg of MBPp85–99 in complete Freund's adjuvant for EAE induction. Ten days later, when the clinical manifestations of disease became apparent, a single intra-peritoneal dose of peptide {SEQ ID NO:4} EYYKEYYKEYYK (squares), {SEQ ID NO:5} KYYKYYKYYKYY (triangles), or PBS (circles)was administered. Results are expressed as mean disease score of groups of six animals.
Animals. Female Lewis rats (6–8 weeks old), were purchased from Harlan Sprague Dawley (Indianapolis, Ind.)
Peptides. For immunization and disease reversal, peptides were synthesized on a peptide synthesizer (model 9050: MilliGen, Burlington, Mass.) by standard 9-fluorenylmethoxycarbonyl chemistry. Peptides were purified by HPLC. Structure was confirmed by amino acid analysis and mass spectroscopy. Peptides used for the experiments were: {SEQ ID NO:11} ENPVVHFFKNIVTPR (MBPp85–99), {SEQ ID NO:4} EYYKEYYKEYYK, {SEQ ID NO:5} KYYKYYKYYKYY.
EAE Induction. […] Experimental animals were scored as follows: 0, no clinical disease; 1, tail weakness or paralysis; 2, hind limb weakness; 3, hind limb paralysis; 4, forelimb weakness or paralysis; 5, moribund or dead animal.
EAE Treatment. Rats previously immunized with MBPp85–99 for EAE induction were scored from day eight after peptide injection. […]

The subject of the next assay is anti-MBP antibodies. Put plainly: Inhibition of autoantibody binding to MBP (anti-MBP antibodies affinity-purified from CNS lesions). Conditions: anti-MBP antibodies from CNS lesions of 12 post-mortem cases. The source says:
Previously, we have compared the structural requirements for autoantibody recognition to those of T cell clones reactive to MBP p87–99. Anti-MBP antibodies were affinity-purified from CNS lesions of 12 post-mortem cases studied. The MBP p87–99 peptide was immunodominant in all cases and it inhibited autoantibody binding to MBP by more than 95%. Residues contributing to autoantibody binding were located in a 10-amino acid segment p86–95 ({SEQ ID NO:9} VVHFFKNIVT) that also contained the MHC-T cell receptor contact residues for T cells recognizing MBP in the context of DRB1*1501 and DQB1*0602. In the epitope center, the same residues, {SEQ ID NO:10} VHFFK, were important for T cell binding and MHC recognition. Recently, the crystal structure of HLA-DR2 with MBPp85–99 was solved, confirming the prediction that K91 is the major TCR contact residue, while F90 is a major anchor into the hydrophobic P4 pocket of the MHC molecule.

For “EYYKEYYKEYYK [ordered peptide of the repeated motif EYYK (n=3)]”, the “effect on EAE (mean disease score)” value in assay [1] was “prevents the development of EAE; also recorded: effective in preventing and treating experimental autoimmune encephalomyelitis”.

For “MBP p87–99: peptide of residues 87–99 of myelin basic protein, immunodominant epitope (SRPHLIRLFSRDA; UniProt P02686 87-99, looked up, fragment)”, the “inhibition of autoantibody binding to MBP” value with anti-MBP antibodies was “more than 95%”.
